{"source": "paper PMC6979384", "about": "“Characterization of the plant homeodomain (PHD) reader family for their histone tail interactions” (Epigenetics & Chromatin, 2020)", "test_in_all_cases": "Histone peptide microarray", "assay_type_in_all_cases": "binding, human", "details_in_all_cases": "histone peptide array, arrays performed twice, n of 4", "key": {"KDM7A": {"tested_on": "KDM7A", "procedure,_shortened": "(§1)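 Readout is array binding signal, reported as the mean and standard deviation over four replicates. Each purified GST-fused PHD domain was incubated at 0.5 μM with a library of 293 modified histone peptides.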"}, "PHF23": {"tested_on": "PHF23", "procedure,_shortened": "as §1"}, "DIDO1": {"tested_on": "DIDO1", "procedure,_shortened": "as §1"}, "KDM5B (1)": {"tested_on": "KDM5B (1)", "procedure,_shortened": "as §1"}, "KDM5A (3)": {"tested_on": "KDM5A (3)", "procedure,_shortened": "as §1"}, "PHF2": {"tested_on": "PHF2", "procedure,_shortened": "as §1"}, "AIRE (PP)": {"tested_on": "AIRE (PP)", "procedure,_shortened": "as §1"}, "TRIM66 (PB)": {"tested_on": "TRIM66 (PB)", "procedure,_shortened": "as §1"}, "TAF3": {"tested_on": "TAF3", "procedure,_shortened": "as §1"}, "KDM5B (3)": {"tested_on": "KDM5B (3)", "procedure,_shortened": "as §1"}, "ING3": {"tested_on": "ING3", "procedure,_shortened": "as §1"}, "DPF2 (PPC2W2)": {"tested_on": "DPF2 (PPC2W2)", "procedure,_shortened": "as §1"}, "KDM5A (1)": {"tested_on": "KDM5A (1)", "procedure,_shortened": "as §1"}, "RAG2": {"tested_on": "RAG2", "procedure,_shortened": "as §1"}, "MORC3 (CW)": {"tested_on": "MORC3 (CW)", "procedure,_shortened": "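Purified PHD finger domains fused to GST are screened against 293 synthetic histone peptides bearing one or several post-translational modifications. The protein is used at 0.5 μM, and the signal from four replicate arrays is averaged, with standard deviation given.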"}, "BPTF (PB)": {"tested_on": "BPTF (PB)", "procedure,_shortened": "as §1"}, "ING4": {"tested_on": "ING4", "procedure,_shortened": "as §1"}, "MLL5": {"tested_on": "MLL5", "procedure,_shortened": "as §1"}, "CHD5 (PPCC)": {"tested_on": "CHD5 (PPCC)", "procedure,_shortened": "as §1"}, "ING1": {"tested_on": "ING1", "procedure,_shortened": "as §1"}, "PHF13": {"tested_on": "PHF13", "procedure,_shortened": "as §1"}, "PHRF1 (RP)": {"tested_on": "PHRF1 (RP)", "procedure,_shortened": "as §1"}, "ING5": {"tested_on": "ING5", "procedure,_shortened": "as §1"}, "KDM4C (TTP)": {"tested_on": "KDM4C (TTP)", "procedure,_shortened": "as §1"}, "SP140L": {"tested_on": "SP140L", "procedure,_shortened": "as §1"}, "BAZ2B": {"tested_on": "BAZ2B", "procedure,_shortened": "as §1"}, "PHF21A": {"tested_on": "PHF21A", "procedure,_shortened": "as §1"}, "PHF8": {"tested_on": "PHF8", "procedure,_shortened": "as §1"}, "CHD4 (PPCC)": {"tested_on": "CHD4 (PPCC)", "procedure,_shortened": "as §1"}, "ING2": {"tested_on": "ING2", "procedure,_shortened": "as §1"}, "CHD5 (PCC)": {"tested_on": "CHD5 (PCC)", "procedure,_shortened": "as §1"}, "[1]": {"details": "GST-tagged reader, PB = PHD + Bromodomain"}, "[2]": {"details": "GST-tagged reader, PPCC = Dual PHD + Dual Chromodomain"}}}
{"substance": "H4 (1-23): H4 1-23", "values": [{"measurement": "Array Heatmap signal, KDM7A", "setting": "KDM7A; GST-tagged KDM7A", "result": 0.4019}, {"measurement": "Array Heatmap signal, PHF23", "setting": "PHF23; GST-tagged PHF23", "result": 0.53}, {"measurement": "Array Heatmap signal, DIDO1", "setting": "DIDO1; GST-tagged DIDO1", "result": 0.6189}, {"measurement": "Array Heatmap signal, KDM5B (1)", "setting": "KDM5B (1); GST-tagged KDM5B (1)", "result": 0.7073}, {"measurement": "Array Heatmap signal, KDM5A (3)", "setting": "KDM5A (3); GST-tagged KDM5A (3)", "result": 0.4566}, {"measurement": "Array Heatmap signal, PHF2", "setting": "PHF2; GST-tagged PHF2", "result": 0.4784}, {"measurement": "Array Heatmap signal, AIRE (PP)", "setting": "AIRE (PP); GST-tagged AIRE (PP)", "result": 0.4854}, {"measurement": "Array Heatmap signal, TRIM66 (PB)", "setting": "TRIM66 (PB); GST-tagged TRIM66 (PB = PHD + Bromodomain)", "result": 0.7288}, {"measurement": "Array Heatmap signal, TAF3", "setting": "TAF3; GST-tagged TAF3", "result": 0.3843}, {"measurement": "Array Heatmap signal, KDM5B (3)", "setting": "KDM5B (3); GST-tagged KDM5B (3)", "result": 0.4835}, {"measurement": "Array Heatmap signal, ING3", "setting": "ING3; GST-tagged ING3", "result": 0.4725}, {"measurement": "Array Heatmap signal, DPF2 (PPC2W2)", "setting": "DPF2 (PPC2W2); GST-tagged DPF2 (PPC2W2 = Dual PHD + C2W2-type Zn-finger)", "result": 0.7352}, {"measurement": "Array Heatmap signal, KDM5A (1)", "setting": "KDM5A (1); GST-tagged KDM5A (1)", "result": 0.4868}, {"measurement": "Array Heatmap signal, RAG2", "setting": "RAG2; GST-tagged RAG2", "result": 0.2838}, {"measurement": "Array Heatmap signal, MORC3 (CW)", "setting": "MORC3 (CW); GST-tagged MORC3 (CW = CW-type Zn-finger)", "result": 0.3892}, {"measurement": "Array Heatmap signal, BPTF (PB)", "setting": "BPTF (PB); GST-tagged BPTF (PB = PHD + Bromodomain)", "result": 0.3416}, {"measurement": "Array Heatmap signal, ING4", "setting": "ING4; GST-tagged ING4", "result": 0.4424}, {"measurement": "Array Heatmap signal, MLL5", "setting": "MLL5; GST-tagged MLL5", "result": 0.5337}, {"measurement": "Array Heatmap signal, CHD5 (PPCC)", "setting": "CHD5 (PPCC); GST-tagged CHD5 (PPCC = Dual PHD + Dual Chromodomain)", "result": 0.5714}, {"measurement": "Array Heatmap signal, ING1", "setting": "ING1; GST-tagged ING1", "result": 0.4959}, {"measurement": "Array Heatmap signal, PHF13", "setting": "PHF13; GST-tagged PHF13", "result": 0.625}, {"measurement": "Array Heatmap signal, PHRF1 (RP)", "setting": "PHRF1 (RP); GST-tagged PHRF1 (RP)", "result": 0.532}, {"measurement": "Array Heatmap signal, ING5", "setting": "ING5; GST-tagged ING5", "result": 0.3618}, {"measurement": "Array Heatmap signal, KDM4C (TTP)", "setting": "KDM4C (TTP); GST-tagged KDM4C (TTP = Tandem Tudor domain + PHD)", "result": 0.5139}, {"measurement": "Array Heatmap signal, SP140L", "setting": "SP140L; GST-tagged SP140L", "result": 0.3814}, {"measurement": "Array Heatmap signal, BAZ2B", "setting": "BAZ2B; GST-tagged BAZ2B", "result": 0.467}, {"measurement": "Array Heatmap signal, PHF21A", "setting": "PHF21A; GST-tagged PHF21A", "result": 0.4603}, {"measurement": "Array Heatmap signal, PHF8", "setting": "PHF8; GST-tagged PHF8", "result": 0.3699}, {"measurement": "Array Heatmap signal, CHD4 (PPCC)", "setting": "CHD4 (PPCC); GST-tagged CHD4 (PPCC = Dual PHD + Dual Chromodomain)", "result": 0.5522}, {"measurement": "Array Heatmap signal, ING2", "setting": "ING2; GST-tagged ING2", "result": 0.5875}, {"measurement": "Array Heatmap signal, CHD5 (PCC)", "setting": "CHD5 (PCC); GST-tagged CHD5 (PCC = PHD + Dual Chromodomain)", "result": 0.772}]}
{"substance": "H4 (1-24): H4 1-24", "values": [{"measurement": "Array Heatmap signal, KDM7A", "setting": "KDM7A; GST-tagged reader", "result": 0.3276}, {"measurement": "Array Heatmap signal, PHF23", "setting": "PHF23; GST-tagged reader", "result": 0.5274}, {"measurement": "Array Heatmap signal, DIDO1", "setting": "DIDO1; GST-tagged reader", "result": 0.6429}, {"measurement": "Array Heatmap signal, KDM5B (1)", "setting": "KDM5B (1); GST-tagged reader", "result": 0.6708}, {"measurement": "Array Heatmap signal, KDM5A (3)", "setting": "KDM5A (3); GST-tagged reader", "result": 0.4381}, {"measurement": "Array Heatmap signal, PHF2", "setting": "PHF2; GST-tagged reader", "result": 0.4794}, {"measurement": "Array Heatmap signal, AIRE (PP)", "setting": "AIRE (PP); GST-tagged reader", "result": 0.4377}, {"measurement": "Array Heatmap signal, TRIM66 (PB)", "setting": "TRIM66 (PB); [1]", "result": 0.5969}, {"measurement": "Array Heatmap signal, TAF3", "setting": "TAF3; GST-tagged reader", "result": 0.2583}, {"measurement": "Array Heatmap signal, KDM5B (3)", "setting": "KDM5B (3); GST-tagged reader", "result": 0.458}, {"measurement": "Array Heatmap signal, ING3", "setting": "ING3; GST-tagged reader", "result": 0.4908}, {"measurement": "Array Heatmap signal, DPF2 (PPC2W2)", "setting": "DPF2 (PPC2W2); GST-tagged reader, PPC2W2 = Dual PHD + C2W2-type Zn-finger", "result": 0.6876}, {"measurement": "Array Heatmap signal, KDM5A (1)", "setting": "KDM5A (1); GST-tagged reader", "result": 0.4479}, {"measurement": "Array Heatmap signal, RAG2", "setting": "RAG2; GST-tagged reader", "result": 0.2506}, {"measurement": "Array Heatmap signal, MORC3 (CW)", "setting": "MORC3 (CW); GST-tagged reader, CW = CW-type Zn-finger", "result": 0.3968}, {"measurement": "Array Heatmap signal, BPTF (PB)", "setting": "BPTF (PB); [1]", "result": 0.3511}, {"measurement": "Array Heatmap signal, ING4", "setting": "ING4; GST-tagged reader", "result": 0.4561}, {"measurement": "Array Heatmap signal, MLL5", "setting": "MLL5; GST-tagged reader", "result": 0.528}, {"measurement": "Array Heatmap signal, CHD5 (PPCC)", "setting": "CHD5 (PPCC); [2]", "result": 0.5427}, {"measurement": "Array Heatmap signal, ING1", "setting": "ING1; GST-tagged reader", "result": 0.5158}, {"measurement": "Array Heatmap signal, PHF13", "setting": "PHF13; GST-tagged reader", "result": 0.6132}, {"measurement": "Array Heatmap signal, PHRF1 (RP)", "setting": "PHRF1 (RP); GST-tagged reader", "result": 0.5307}, {"measurement": "Array Heatmap signal, ING5", "setting": "ING5; GST-tagged reader", "result": 0.3526}, {"measurement": "Array Heatmap signal, KDM4C (TTP)", "setting": "KDM4C (TTP); GST-tagged reader, TTP = Tandem Tudor domain + PHD", "result": 0.4748}, {"measurement": "Array Heatmap signal, SP140L", "setting": "SP140L; GST-tagged reader", "result": 0.3819}, {"measurement": "Array Heatmap signal, BAZ2B", "setting": "BAZ2B; GST-tagged reader", "result": 0.4426}, {"measurement": "Array Heatmap signal, PHF21A", "setting": "PHF21A; GST-tagged reader", "result": 0.4744}, {"measurement": "Array Heatmap signal, PHF8", "setting": "PHF8; GST-tagged reader", "result": 0.3446}, {"measurement": "Array Heatmap signal, CHD4 (PPCC)", "setting": "CHD4 (PPCC); [2]", "result": 0.5779}, {"measurement": "Array Heatmap signal, ING2", "setting": "ING2; GST-tagged reader", "result": 0.5969}, {"measurement": "Array Heatmap signal, CHD5 (PCC)", "setting": "CHD5 (PCC); GST-tagged reader, PCC = PHD + Dual Chromodomain", "result": 0.7379}]}
